This is an account of results in patent US4443619A, “Chlorocitric acids” (Hoffmann-La Roche Inc., priority 1981, dated 1984).

A short description of assay [1]: Anorectic activities of stereoisomers: 3-day food consumption and body weight gain in meal-fed rats. Format: in vivo, Charles River female rats. The note with it: 1.32 mmoles/kg oral, 3 days, mean ± S.E. The protocol:
Charles River female rats (Charles River Breeding Laboratories, Wilmington, Mass.), weighing 196 to 210 g, were individually housed in wire-bottomed cages in a temperature-regulated (22° C.) light-controlled room (12 hr light, 6 a.m. to 6 p.m. and 12 hr dark, 6 p.m. to 6 a.m.). Animals were fasted 48 hr, then meal-fed a 70% glucose diet from 8 to 11 a.m. Following 5 to 12 days alimentation on the meal-feeding regimen, rats were dosed with the appropriate compounds orally by intubation 1/2 hr before the 3 hr meal for 3 days. The total food consumption and body weight gained during the 3 day period were determined. The control group consisted of 16 rats, while the experimental group consists of 8 rats.

A further assay has as its system Stomach Emptying. Description: Effect on stomach emptying ([14C]glucose load) in rats (Example 25). As to conditions: 0.33 mmoles/kg oral, 60 min after [14C]glucose load, mean ± S.E. Format: in vivo. How it is done:
Rats were trained to consume a 3 hr 70% glucose meal from 8 a.m. to 11 a.m. daily. On the experimental day, compounds were administered orally by intubation 30 min before a [^14 C]glucose load was given also by intubation. […] Sixty minutes later the rats were killed by decapitation; blood and stomachs were collected on ice.
Data are expressed as follows: dpm×10^3 per ml of serum and dpm×10^3 per stomach.

The nature of assay [2]: Effect of stereoisomers of chlorocitric acid on food consumption in meal-fed rats (Example 14). The note with it: mean ± S.E. It counts as in vivo, Charles River female rats. The protocol: Animals were fasted 48 hr, then meal-fed the 70% glucose diet described by A. C. […] Following 5 to 12 days alimentation on the meal-feeding regimen, rats were dosed with the appropriate compounds orally by intubation 1/2 hr before the 3 hr meal. Food cups were weighed immediately after the meal. The control group consisted of 5 to 10 rats, while the experimental group consisted of 4 to 6 rats.

Assay [3] is described as follows: Food consumption of three diets in meal-fed rats (Example 15). The note with it: mean ± S.E. Format: in vivo, Charles River female rats. The protocol:
Charles River female rats (Charles River Breeding Laboratories, Wilmington, Mass.), weighing 170 to 200 g, were individually housed in wire-bottomed cages in a temperature-regulated (22° C.) light-controlled room (12 hr light, 6 a.m. to 6 p.m. and 12 hr dark, 6 p.m. to 6 a.m.). Animals were fasted 48 hr, then meal-fed the indicated diets from 8 to 11 a.m. Following 5 to 12 days alimentation on the meal-feeding regimen, rats were dosed with the appropriate compounds orally by intubation 1/2 hr before the 3 hr meal. Food cups were weighed immediately after the 1st, 2nd and 3rd hr of the meal. The control groups consisted of 8 to 10 rats and the experimental group considered of 5 to 6 rats.

Assay [4] in a line: Body weight gain in 8 hour meal-fed Zucker rats (Example 18). It counts as in vivo, lean (Fa/-) and obese (fa/fa). As to conditions: 0.66 mmoles/kg b.i.d. oral, 6 days, mean ± S.E. How it is done: (§1) Lean (Fa/-) Zucker rats and obese (fa/fa) Zucker rats of both sexes were individually housed in wire-bottomed cages in a temperature-regulated (22° C.) light-controlled room (12 hr light, 6 a.m. to 6 p.m. and 12 hr dark, 6 p.m. to 6 a.m.). The animals were fed a high carbohydrate (70% glucose) diet ad libitum for 13 days, dosed with the indicated compounds by oral intubation for 9 days and allowed to recover for 3 days. The animals were then meal fed from 8 a.m. to 4 p.m. for a period of 5 days, following which they were continued on the same meal schedule for an additional 6 days. During the 6-day period, the animals were administered the indicated compounds by oral intubation at 8 a.m. and 12 p.m. Body weight gain during the 6-day period was determined.

Assay [5] is described as follows: Anorectic effect in 8 hour meal-fed Zucker rats (Example 17). Format: in vivo, lean (Fa/-) and obese (fa/fa). How it is done:
as §1, with “p.m.” for “p.m. to”, “Food cups were weighed immediately after” for “Body weight gain during”, “meal.” for “6-day period was determined.”

A short description of assay [6]: Food intake in dogs, pyramiding oral doses (Examples 26 and 27). Format: in vivo, beagle dogs. The protocol: Twelve beagle dogs of both sexes weighing 7.6-12.2 kg were used for this test. The test compounds were contained in gelatin capsules for oral administration to two dogs of each sex. The animals were weighed and food consumption calculated daily excluding weekends throughout the test period. Each animal received 800 grams of diet daily consisting of 400 grams of Wayne pellet dog food mixed with 400 ml distilled water. The animals received pyramiding oral doses of the test compound over the three week period. On Monday and Tuesday of the first week the animals were weighed and food consumption was recorded (control). The animals received 3 mg/kg on Wednesday and 10 mg/kg on Friday of the first week. Doses of 30, 100 and 300 mg/kg were administered on Monday, Wednesday and Friday respectively during the second week. A final dose of 1000 mg/kg was administered on Monday of the third week.
Food intake was determined by the procedure by pyramiding doses described in Example 26.

[7] abbreviates: 0.66 mmoles/kg oral, control 8.2 ± 1.2.
Where [8] appears, read: 2.63 mmoles/kg oral, control 13.5 ± 0.8.
Setting [9] is: 20% Corn Oil, 0.33 mmoles (75 mg)/kg oral.
[10] abbreviates: 20% Corn Oil, 0.66 mmoles (150 mg)/kg oral.
[11] abbreviates: 70% Glucose, 0.33 mmoles (75 mg)/kg oral.
Where [12] appears, read: 70% Glucose, 0.66 mmoles (150 mg)/kg oral.
Where [13] appears, read: Chow, 0.33 mmoles (75 mg)/kg oral.
The mark [14] stands for this setting: Chow, 0.66 mmoles (150 mg)/kg oral.
Setting [15] is: test day 20, no dose, (±) one animal, (+) and (-) two animals.

Counter-ions that a name gives are not always drawn.

Take `O=C(O)C[C@](O)(C(=O)O)[C@@H](Cl)C(=O)O` [(-)-erythro-Chlorocitric acid, (-)-erythro-chlorocitric acid]: in assay [1], the “3-Day Body Weight Gain” value is reported as -4.8 ± 3.2 g and the “3-Day Food Consumption” value is reported as 24.5 ± 1.8 g. For the same compound, in the assay on Stomach Emptying, the “Serum, total per ml” value turned out to be 5.1 ± 0.4 dpm × 10^3 and the “Stomach Contents, total per stomach” value amounted to 1491 ± 232 dpm × 10^3. The compound further yielded a Food consumption in assay [2] (setting [7]) of 7.0 ± 1.9 g. The Food consumption in assay [2] (setting [8]) worked out at 7.2 ± 1.5 g.
Turning to `O=C(O)C[C@](O)(C(=O)O)[C@H](Cl)C(=O)O` [(+)-threo-Chlorocitric acid, (+)-threo-chlorocitric acid], the “3-Day Body Weight Gain” value in assay [1] was -3.5 ± 1.2 g. Further, the “3-Day Food Consumption” value in assay [1] is recorded as 26.5 ± 1.3 g. The “Food intake, 1st hr” value in assay [3] (setting [9]) worked out at 7.1 ± 1.2 g; in assay [3] (setting [10]), 6.7 ± 1.6 g; in assay [3] (setting [11]), 6.2 ± 1.8 g; in assay [3] (setting [12]) it was 3.2 ± 0.5 g; in assay [3] (setting [13]), 7.4 ± 0.6 g; in assay [3] (setting [14]) it was 7.7 ± 0.5 g. Moreover, the “Food intake, 2nd hr” value in assay [3] (setting [9]) turned out to be 3.9 ± 0.5 g; in assay [3] (setting [10]), 3.1 ± 0.6 g; in assay [3] (setting [11]), 2.4 ± 0.8 g; in assay [3] (setting [12]), 5.1 ± 1.3 g; in assay [3] (setting [13]), 2.6 ± 0.7 g; in assay [3] (setting [14]), 3.9 ± 0.5 g. Besides, the “Food intake, 3rd hr” value in assay [3] (setting [9]) came to 3.2 ± 0.6 g; in assay [3] (setting [10]) it was 2.2 ± 0.7 g; in assay [3] (setting [11]) it was 2.4 ± 0.5 g; in assay [3] (setting [12]), 1.7 ± 0.3 g; in assay [3] (setting [13]), 2.2 ± 0.5 g; in assay [3] (setting [14]) it was 1.8 ± 0.9 g. In addition, the “Food intake, Total” value in assay [3] (setting [9]) came to 14.2 ± 1.2 g; in assay [3] (setting [10]), 12.3 ± 1.6 g; in assay [3] (setting [11]), 11.0 ± 2.3 g; in assay [3] (setting [12]), 10.1 ± 1.7 g; in assay [3] (setting [13]), 12.2 ± 0.4 g; in assay [3] (setting [14]) it was 13.4 ± 0.9 g. Besides, the “Body Weight Gain” value was 2.5 ± 2.3 g in assay [4] (Fa/- lean) and -3.6 ± 2.0 g in assay [4] (fa/fa obese). The “Serum, total per ml” value with Stomach Emptying amounted to 3.4 ± 0.6 dpm × 10^3. The “Stomach Contents, total per stomach” value with Stomach Emptying is recorded as 1946 ± 361 dpm × 10^3. The “Daily Food Consumption” value in assay [5] (Fa/- lean, 0.66 mmoles/kg oral, treatment day 1) was 10.1 ± 0.8 g; in assay [5] (Fa/- lean, 0.66 mmoles/kg oral, treatment day 2), 8.7 ± 0.3 g; in assay [5] (Fa/- lean, 0.66 mmoles/kg oral, treatment day 3) it was 11.7 ± 0.7 g; in assay [5] (Fa/- lean, 0.66 mmoles/kg oral, treatment day 4) it was 9.8 ± 0.9 g; in assay [5] (Fa/- lean, 0.66 mmoles/kg oral, treatment day 5), 12.8 ± 0.9 g; in assay [5] (Fa/- lean, 0.66 mmoles/kg oral, treatment day 6), 11.4 ± 0.7 g. For the same compound, the “Daily Food Consumption” value in assay [5] (Fa/- lean, 0.66 mmoles/kg, day 0 (pretreatment)) was 10.6 ± 0.8 g; in assay [5] (fa/fa obese, 0.66 mmoles/kg oral, treatment day 1), 10.3 ± 0.4 g; in assay [5] (fa/fa obese, 0.66 mmoles/kg oral, treatment day 2), 8.8 ± 0.8 g; in assay [5] (fa/fa obese, 0.66 mmoles/kg oral, treatment day 3) it was 11.3 ± 1.0 g; in assay [5] (fa/fa obese, 0.66 mmoles/kg oral, treatment day 4), 11.6 ± 1.2 g; in assay [5] (fa/fa obese, 0.66 mmoles/kg oral, treatment day 5), 12.3 ± 1.5 g. The “Daily Food Consumption” value in assay [5] (fa/fa obese, 0.66 mmoles/kg oral, treatment day 6) stood at 14.2 ± 1.8 g; in assay [5] (fa/fa obese, 0.66 mmoles/kg, day 0 (pretreatment)), 14.3 ± 1.4 g. Besides, the Food consumption is 6.8 ± 1.0 g in assay [2] (setting [7]); 5.1 ± 1.2 g in assay [2] (setting [8]); 583 ± 17 g in assay [6] (setting [15]); 610 ± 43 g in assay [6] (test days -2, -1, before dosing (control period)). Also, the “Food Consumption, % of control” value in assay [6] (setting [15]) was 96 % of control.
`O=C(O)C[C@@](O)(C(=O)O)[C@H](Cl)C(=O)O` [(+)-erythro-Chlorocitric acid, (+)-erythro-chlorocitric acid]: in assay [1], the “3-Day Body Weight Gain” value is -1.5 ± 2.3 g and the “3-Day Food Consumption” value stood at 31.8 ± 2.3 g. Also, in the assay on Stomach Emptying, the “Serum, total per ml” value is given as 5.0 ± 0.4 dpm × 10^3 and the “Stomach Contents, total per stomach” value turned out to be 1832 ± 160 dpm × 10^3. Further, the Food consumption in assay [2] (setting [7]) was determined as 8.1 ± 1.6 g. Also, in assay [2] (setting [8]), the Food consumption came out at 10.5 ± 0.8 g.
As to `O=C(O)CC(O)(CC(=O)O)C(=O)O` [Trisodium Citrate, reference compound], in the assay on Stomach Emptying, the “Serum, total per ml” value worked out at 6.4 ± 0.1 dpm × 10^3 and the “Stomach Contents, total per stomach” value is recorded as 1180 ± 208 dpm × 10^3.
